Results on 23 compounds are retold here after US11066414B2, “Cot modulators and methods of use thereof” (Gilead Sciences, Inc., priority 2015, dated 2021).

One assay concerns TNFα. Put plainly: Cot Monocyte TNFα Cell Based Assay.
The next assay has as its target Human Cot (Homo sapiens (Human), UniProt P41279). Put plainly: High Throughput Cot Biochemical Assay. To be noted: Cot HTRF (TR-FRET) biochemical assay.
Setting [1] is: Homo sapiens, Monocyte, read-out: EC50 TNF, LPS-stimulated human monocytes, TNFα.
[2] abbreviates: read-out: EC50 TNF, LPS-stimulated human monocytes, TNFα.

Read-outs that look alike come from different tables or passages of the source.

Sequence of Human Cot (P41279 30-397): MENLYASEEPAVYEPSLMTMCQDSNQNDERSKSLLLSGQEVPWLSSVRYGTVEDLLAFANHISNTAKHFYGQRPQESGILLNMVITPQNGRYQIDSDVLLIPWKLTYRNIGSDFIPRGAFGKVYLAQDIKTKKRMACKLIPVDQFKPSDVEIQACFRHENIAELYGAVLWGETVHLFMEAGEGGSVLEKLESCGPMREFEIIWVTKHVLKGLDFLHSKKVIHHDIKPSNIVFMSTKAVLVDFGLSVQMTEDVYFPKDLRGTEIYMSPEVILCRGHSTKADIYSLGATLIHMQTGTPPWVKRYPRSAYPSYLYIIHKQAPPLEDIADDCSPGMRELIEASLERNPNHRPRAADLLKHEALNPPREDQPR
Procedure for Human Cot: Human Cot enzyme activity was measured using KinEASE (Cisbio), a time-resolved fluorescence resonance energy transfer (TR-FRET) immunoassay. In this assay, Cot-catalyzes the phosporylation of a XL665-labeled peptide substrate. Europium conjugated phospho-tyrosine specific antibody binds the resulting phosphorylated peptide. Formation of phosphorylated peptide is quantified by TR-FRET with Europium as the donor and XL665 the acceptor in a 2-step endpoint assay. […] In brief, test compounds serially diluted in DMSO were delivered into Proxy white, low volume, 384 well plates using the Echo 550 acoustic liquid dispenser (Labcyte®). Cot enzyme and substrates were dispensed into assay plates using a Multi-Flo (Bio-Tek Instruments). The standard 5 μL reaction mixture contained 400 μM ATP, 1 μM STK3 peptide, 5 nM of Cot in reaction buffer (10 mM MOPS, pH 7.0, 0.02% NaN3, 0.5 mg/mL BSA, 10 mM MgOAc, 1 mM DTT, 0.025% NP-40, 1.5% glycerol) and 0.1% DMSO.

Usually EC50 stands for the midpoint of the concentration-response curve. The term IC50 denotes the concentration that gives 50% inhibition. As for `CC(C)(C)N1CCC(n2cc([C@@H](Nc3cc(Cl)c4ncc(C#N)c(Nc5ccc(F)c(Cl)c5)c4c3)c3csc4ccc(Cl)cc34)nn2)CC1` [Example 349, (S)-6-(((1-(1-(tert-butyl)piperidin-4-yl)-1H-1,2,3-triazol-4-yl)(5-chlorobenzo[b]-thiophen-3-yl)methyl)amino)-8-chloro-4-((3-chloro-4-fluorophenyl)amino)quinoline-3-carbonitrile], the EC50 in the assay on TNFα (setting [1]) worked out at 718 nM. Besides, on Human Cot (IC50 HTRF), the IC50 came to 41 nM.

Regarding `CC(C)(C)N1CCC(n2cc([C@@H](Nc3cc(Cl)c4ncc(C#N)c(Nc5ccc(Cl)c(Cl)c5)c4c3)c3cscn3)nn2)CC1` [Example 350, (S)-6-(((1-(1-(tert-butyl)piperidin-4-yl)-1H-1,2,3-triazol-4-yl)(thiazol-4-yl)methyl)amino)-8-chloro-4-((3,4-dichlorophenyl)amino)quinoline-3-carbonitrile], in the assay on TNFα (setting [1]), the EC50 stood at 4510 nM. Further, the IC50 against Human Cot (IC50 HTRF) was determined as 26 nM.

With `CC(C)(C)N1CCC(n2cc([C@@H](Nc3cc(Cl)c4ncc(C#N)c(Nc5ccc(F)c(Cl)c5)c4c3)c3csc4ccccc34)nn2)CC1` [Example 351, (S)-6-((benzo[b]thiophen-3-yl(1-(1-(tert-butyl)piperidin-4-yl)-1H-1,2,3-triazol-4-yl)methyl)amino)-8-chloro-4-((3-chloro-4-fluorophenyl)amino)-quinoline-3-carbonitrile], the EC50 in the assay with TNFα (setting [1]) stood at 744 nM. The same compound showed an IC50 on Human Cot (IC50 HTRF) of 10 nM.

Take `CC(C)(C)N1CCC(n2cc([C@@H](Nc3cc(Cl)c4ncc(C#N)c(Nc5ccc(F)c(Cl)c5)c4c3)c3cscn3)nn2)CC1` [Example 353, (S)-6-(((1-(1-(tert-butyl)piperidin-4-yl)-1H-1,2,3-triazol-4-yl)(thiazol-4-yl)methyl)amino)-8-chloro-4-((3-chloro-4-fluorophenyl)amino)-quinoline-3-carbonitrile]: the EC50 in the assay with TNFα (setting [1]) amounted to 184 nM. At Human Cot (IC50 HTRF), the IC50 turned out to be 4 nM.

Regarding `CN(C)CCn1cc([C@@H](Nc2cc(Cl)c3ncc(C#N)c(Nc4ccc(F)c(Cl)c4)c3c2)c2cscn2)nn1` [Example 355, (S)-8-chloro-4-((3-chloro-4-fluorophenyl)amino)-6-(((1-(2-(dimethylamino)ethyl)-1H-1,2,3-triazol-4-yl)(thiazol-4-yl)methyl)-amino)quinoline-3-carbonitrile], the EC50 with TNFα (setting [1]) came out at 194 nM. On Human Cot (IC50 HTRF), this compound returned an IC50 of 5 nM.

In the case of `CC(C)n1cc([C@@H](Nc2cc(Cl)c3ncc(C#N)c(Nc4ccc(F)c(Cl)c4)c3c2)c2cscn2)nn1` [Example 357, (S)-8-chloro-4-((3-chloro-4-fluorophenyl)amino)-6-(((1-isopropyl-1H-1,2,3-triazol-4-yl)(thiazol-4-yl)methyl)amino)quinoline-3-carbonitrile], the EC50 in the assay on TNFα (setting [1]) was determined as 235 nM. Besides, the IC50 at Human Cot (IC50 HTRF) came out at 5 nM.

With `COCCn1cc([C@@H](Nc2cc(Cl)c3ncc(C#N)c(Nc4ccc(F)c(Cl)c4)c3c2)c2cscn2)nn1` [Example 358, (S)-8-chloro-4-((3-chloro-4-fluorophenyl)amino)-6-(((1-(2-methoxyethyl)-1H-1,2,3-triazol-4-yl)(thiazol-4-yl)methyl)amino)-quinoline-3-carbonitrile], the EC50 in the assay on TNFα (setting [1]) came out at 130 nM. The compound further gave an IC50 against Human Cot (IC50 HTRF) of 3 nM.

Take `N#Cc1cnc2c(Cl)cc(N[C@@H](c3cscn3)c3cn(CCN)nn3)cc2c1Nc1ccc(F)c(Cl)c1` [Example 359, (S)-6-(((1-(2-arninoethyl)-1H-1,2,3-triazol-4-yl)(thiazol-4-yl)methyl)-amino)-8-chloro-4-((3-chloro-4-fluorophenyl)amino)quinoline-3-carbonitrile]: the EC50 in the assay on TNFα (setting [2]) turned out to be 729 nM. For the same compound, at Human Cot (read-out: IC50 HTRF), the IC50 turned out to be 3 nM.

As to `CN(C)CCCn1cc([C@@H](Nc2cc(Cl)c3ncc(C#N)c(Nc4ccc(F)c(Cl)c4)c3c2)c2cscn2)nn1` [Example 360, (S)-8-chloro-4-((3-chloro-4-fluorophenyl)amino)-6-(((1-(3-(dimethylamino)propyl)-1H-1,2,3-triazol-4-yl)(thiazol-4-yl)methyl)-amino)quinoline-3-carbonitrile], the EC50 in the assay with TNFα (setting [1]) came out at 151 nM. This compound showed an IC50 against Human Cot (IC50 HTRF) of 4 nM.

Turning to `N#Cc1cnc2c(Cl)cc(N[C@@H](c3cscn3)c3cn(C4COC4)nn3)cc2c1Nc1ccc(F)c(Cl)c1` [Example 363, (S)-8-chloro-4-((3-chloro-4-fluorophenyl)amino)-6-(((1-(oxetan-3-yl)-1H-1,2,3-triazol-4-yl)(thiazol-4-yl)methyl)amino)quinoline-3-carbonitrile], the EC50 with TNFα (setting [1]) was 257 nM. For the same compound, on Human Cot (IC50 HTRF), the midpoint of inhibition, the IC50, lay at 4 nM.

Take `N#CCn1cc([C@@H](Nc2cc(Cl)c3ncc(C#N)c(Nc4ccc(F)c(Cl)c4)c3c2)c2cscn2)nn1` [Example 364, (S)-8-chloro-4-((3-chloro-4-fluorophenyl)amino)-6-(((1-(cyanomethyl)-1H-1,2,3-triazol-4-yl)(thiazol-4-yl)methyl)amino)-quinoline-3-carbonitrile]: the EC50 in the assay with TNFα (setting [1]) worked out at 241 nM. Besides, the midpoint of inhibition at Human Cot (IC50 HTRF), the IC50, lay at 7 nM.

On to `CCN1CCC(n2cc(C(Nc3cc(Cl)c4ncc(C#N)c(Nc5ccc(F)c(Cl)c5)c4c3)c3cncnc3)nn2)CC1` (stereo not shown) [Example 366, 8-chloro-4-((3-chloro-4-fluorophenyl)amino)-6-(((1-(1-ethylpiperidin-4-yl)-1H-1,2,3-triazol-4-yl)(pyrimidin-5-yl)methyl)amino)-quinoline-3-carbonitrile], for which the EC50 in the assay with TNFα (setting [1]) stood at 336 nM. The compound further displayed an IC50 on Human Cot (IC50 HTRF) of 5 nM.

Consider `CCN1CCC(n2cc([C@H](c3cccnc3)N(CC)c3cc(Cl)c4ncc(C#N)c(Nc5ccc(F)c(Cl)c5)c4c3)nn2)CC1` [Example 368, (S)-8-chloro-4-((3-chloro-4-fluorophenyl)amino)-6-(ethyl((1-(1-ethylpiperidin-4-yl)-1H-1,2,3-triazol-4-yl)(pyridin-3-yl)methyl)-amino)quinoline-3-carbonitrile], for which the EC50 with TNFα (setting [1]) was 6300 nM. Also, the IC50 against Human Cot (IC50 HTRF) came to 649 nM.

On to `CC(C)(C)N1CCC(n2cc([C@@H](Nc3cc(Cl)c4ncc(C#N)c(Nc5ccc(F)c(Cl)c5)c4c3)c3cncs3)nn2)CC1` [Example 370], for which, in the assay with TNFα (setting [2]), the EC50 turned out to be 232 nM. In addition, the IC50 on Human Cot (read-out: IC50 HTRF) was 8 nM.

Take `CCN1CCC(n2cc([C@@H](Nc3cc(Cl)c4ncc(C#N)c(Nc5ccc(F)c(Cl)c5)c4c3)c3cscc3Cl)nn2)CC1` [Example 371, (S)-8-chloro-4-((3-chloro-4-fluorophenyl)amino)-6-(((4-chlorothiophen-3-yl)(1-(1-ethylpiperidin-4-yl)-1H-1,2,3-triazol-4-yl)methyl)-amino)quinoline-3-carbonitrile]: the EC50 in the assay on TNFα (setting [1]) was found to be 173 nM. The same compound yielded an IC50 against Human Cot (IC50 HTRF) of 2 nM.

Regarding `CCN1CCC(n2cc([C@@H](Nc3cc(Cl)c4ncc(C#N)c(Nc5ccc(F)c(Cl)c5)c4c3)c3cc(C#N)cs3)nn2)CC1` [Example 372, (R)-8-chloro-4-((3-chloro-4-fluorophenyl)amino)-6-(((4-cyanothiophen-2-yl)(1-(1-ethylpiperidin-4-yl)-1H-1,2,3-triazol-4-yl)methyl)-amino)quinoline-3-carbonitrile], in the assay on TNFα (setting [1]), the EC50 was found to be 81 nM. Besides, half-maximal inhibition against Human Cot (IC50 HTRF) (IC50) required 2 nM.

For the compound `CCCN1CCC(n2cc([C@@H](Nc3cc(Cl)c4ncc(C#N)c(Nc5ccc(F)c(Cl)c5)c4c3)c3cncs3)nn2)CC1` [Example 373, (R)-8-chloro-4-((3-chloro-4-fluorophenyl)amino)-6-(((1-(1-propylpiperidin-4-yl)-1H-1,2,3-triazol-4-yl)(thiazol-5-yl)methyl)amino)-quinoline-3-carbonitrile], in the assay with TNFα (setting [1]), the EC50 came out at 81 nM. This compound also came in with an IC50 on Human Cot (IC50 HTRF) of 3 nM.

Turning to `N#Cc1cnc2c(Cl)cc(N[C@H](c3cn(C4CCNCC4)nn3)c3cncs3)cc2c1Nc1ccc(F)c(Cl)c1` [Example 375, (R)-8-chloro-4-((3-chloro-4-fluorophenyl)amino)-6-(((1-(piperidin-4-yl)-1H-1,2,3-triazol-4-yl)(thiazol-5-yl)methyl)amino)quinoline-3-carbonitrile], in the assay on TNFα (setting [1]), the EC50 worked out at 1510 nM. This compound came in with an IC50 at Human Cot (IC50 HTRF) of 4 nM.

Consider `N#Cc1cnc2c(Cl)cc(NC(c3cccnc3)c3ccccn3)cc2c1Nc1ccc(F)c(Cl)c1` (stereo not shown) [Example 376, 8-chloro-4-((3-chloro-4-fluorophenyl)amino)-6-((pyridin-2-yl(pyridin-3-yl)methyl)amino)-quinoline-3-carbonitrile], for which the EC50 in the assay on TNFα (setting [1]) is > 1000 nM. Moreover, at Human Cot (read-out: IC50 HTRF), the IC50 was 182 nM.

On to `N#Cc1cnc2c(Cl)cc(NC(c3ccccn3)c3ccccn3)cc2c1Nc1ccc(F)c(Cl)c1` [Example 377, 8-chloro-4-((3-chloro-4-fluoro-phenyl)amino)-6-((di(pyridin-2-yl)methyl)amino)quinoline-3-carbonitrile], for which, in the assay on TNFα (setting [1]), the EC50 is > 1000 nM. Besides, the IC50 on Human Cot (read-out: IC50 HTRF) amounted to 398 nM.

Take `CCN1CCC(n2cc([C@@H](Nc3cc(Cl)c4ncc(C#N)c(Nc5ccc(F)c(Cl)c5)c4c3)c3cncs3)nn2)CC1` [Example 378, (R)-8-chloro-4-((3-chloro-4-fluoro-phenyl)amino)-6-(((1-(1-ethylpiperidin-4-yl)-1H-1,2,3-triazol-4-yl)(thiazol-5-yl)methyl)amino)quinoline-3-carbonitrile]: the EC50 with TNFα (setting [1]) turned out to be 168 nM. The IC50 against Human Cot (IC50 HTRF) was found to be 2 nM.

Consider `CCN1CCC(n2cc([C@@H](Nc3cc(Cl)c4ncc(C#N)c(Nc5ccc(F)c(Cl)c5)c4c3)c3ccc(Cl)nc3)nn2)CC1` [Example 379, (S)-8-chloro-4-((3-chloro-4-fluoro-phenyl)amino)-6-(((6-chloropyridin-3-yl)(1-(1-ethylpiperidin-4-yl)-1H-1,2,3-triazol-4-yl)methyl)amino)quinoline-3-carbonitrile], for which the EC50 in the assay on TNFα (setting [1]) was found to be 179 nM. The IC50 at Human Cot (IC50 HTRF) was determined as 6 nM.

As for `CCN1CCC(n2cc([C@@H](Nc3cc(Cl)c4ncc(C#N)c(Nc5ccc(F)c(Cl)c5)c4c3)c3cc(Cl)cs3)nn2)CC1` [Example 381, (R)-8-chloro-4-((3-chloro-4-fluoro-phenyl)amino)-6-(((4-chlorothiophen-2-yl)(1-(1-ethylpiperidin-4-yl)-1H-1,2,3-triazol-4-yl)methyl)amino)-quinoline-3-carbonitrile], the EC50 in the assay with TNFα (setting [1]) amounted to 303 nM. The compound also came in with an IC50 against Human Cot (IC50 HTRF) of 7 nM.
